{"source": "patent US20230174649A1", "about": "“PHARMACEUTICAL COMPOSITIONS CONTAINING ANTI-CD47 ANTIBODIES” (I-MAB BIOPHARMA US LIMITED, priority 2020, published 2023)", "key": {"[1]": {"test_system": "macrophages", "test": "Macrophage Viability Assay (CellTiter-Glo)", "type": "cell-based, Human", "conditions": "for Macrophage viability (CellTiter-Glo Luminescent Cell Viability Assay): 16 hours, three replicate lines", "experimental": "Then, the monocytes isolated by MACS were subsequently cultured in fresh complete medium supplemented with recombinant human granulocyte-macrophage colony-stimulating factor GM-CSF (50 ng/ml) and human recombinant IL-4 (35 ng/ml) to activate differentiated macrophages. After 6 days of culture (on day 7), cells were harvested, pooled together and counted for next use.\nThe cells from Example 2 were plated into a 96-well flat bottom plate at a density of 0.05×10^6 cells/well. After 2 hours of incubation, the macrophages were well attached to the plate. Then selected small molecule therapeutic agents were added to the well and cocultured for 16 hours. On day 8, macrophage viability was assessed by CellTiter-Glo® Luminescent Cell Viability Assay, according to the manufacture's instruction."}, "[2]": {"test_system": "CD47", "test": "FACS analysis of expression level of CD47 on tumor cell surface", "type": "cell-based, Human", "conditions": "Toledo cells; for Mean Fluorescence Intensity (MFI) CD47: 12 hours", "experimental": "(§1) For FACS analysis, on the day of analysis (day 1), Toledo cells were seeded into 96 well plate and cultured at a density of 0.2×10^6 cells/well. Then the cells were treated with the selected small molecule therapeutic agents for 12 hours.\n(§2) On day 2, cells were harvested, washed twice and then re-suspended in 100 uL FACS buffer subject to FACS analysis. For detection of the expression of calreticulin and CD47, cells were incubated with anti-calreticulin antibody and commercially available anti-CD47 antibody (BD Biosciences, Catalog number: 561249) in dark at 4° C. for 30 mins.\n(§3) Then, the cells were subject to FACS analysis. Data was acquired and analyzed."}, "[3]": {"test_system": "Calreticulin", "test": "FACS analysis of expression level of calreticulin on tumor cell surface", "type": "cell-based, Human", "conditions": "Toledo cells; for Mean Fluorescence Intensity (MFI) Calreticulin: 12 hours", "experimental": "as §1, §2, §3"}, "[4]": {"test_system": "HL-60 cells", "test": "Anti-tumor efficacy in subcutaneous HL-60 xenograft model", "type": "in vivo, female NOG mice", "conditions": "for antitumor activity compared with the control group: day 12; for Tumor volume / Tumor Size (mm^3) at day 12, Mean ± SEM: listed as AZA", "experimental": "HL-60 cells (a human promyelocytic leukemia cell line, ATCC® cat #CCL-240) were maintained in suspension culture in complete cell growth medium at 37° C. in an atmosphere with 5% CO2. The cells were split twice a week to maintain an exponential growth. After culturing, cells were harvested and counted for tumor inoculation.\nTo establish the xenograft model, HL-60 cells (10×10^6) were suspended in 0.2 mL of PBS with the same volume of Matrigel and subcutaneously injected into the right flank of each mouse. When tumor volume reaches a mean value of approximately 72 mm^3, i.e., on day 6 after inoculation, mice were divided into several groups and treated with PBS (control group), anti-CD47 antibody (i.e., T4J), AZA, or a combination of T4J and AZA, respectively.\nAt the time of routine monitoring, the animals were daily checked for any effects of tumor growth and treatments on normal behavior such as mobility, food and water consumption (by looking only), body weight gain/loss (body weights were measured twice a week), eye/hair matting and any other abnormal effects. Death and observed clinical signs were recorded.\nTumor size was measured twice a week in two dimensions using a caliper, and the volume was calculated using the formula: Volume (V)=(L×W×W)/2, where L is tumor length (the longest tumor dimension) and W is tumor width (the longest tumor dimension perpendicular to L). The tumor volume was then used for calculating T/C values. The T/C value (in percentage) is an indicator of antitumor effectiveness, in which T and C are the mean volumes of the treatment group and the control groups, respectively.\nThe percentage of tumor growth inhibition (TGI) was calculated for each group as follows: 100%×(1−[(Vtreated(^final day)−Vtreated(^initial day))/Vcontrol(^final day)−Vcontrol(^initial day)))], where V is the tumor volume.\nTumor body weight was measured at the end of the study. T/C weight value (in percentage) was calculated using the formula: T/C weight %=T weight/C weight×100% where T weight and C weight were the mean tumor body weight of the treatment group and the control group (vehicle group), respectively.\nQ=TGI(A+B))/(TGI(A)+TGI(B)−TGI(A)×TGI(B))\nAccording to Jin's formula, Q<0.85 indicates antagonistic effect, 0.85≤Q<1.15 indicates additive effect, and Q≥1.15 indicates synergistic effect.\nT-test was performed to compare tumor body weight among groups. One-way ANOVA was performed to compare tumor volume among groups, and when a significant F-statistics (a ratio of treatment variance to the error variance) was obtained, comparisons between groups were carried out with Games-Howell test. All data were analyzed using IBM SPSS software. A P value of less than 0.05 (p<0.05) was considered statistically significant."}}, "note": "“And” between values parts separate entries of the source, which are not always exact repeats. Identical values can stand only once."}
{"smiles": "Nc1ncn([C@@H]2O[C@H](CO)[C@@H](O)[C@H]2O)c(=O)n1", "note": "[Azacitidine]", "values": [{"measurement": "Macrophage viability (CellTiter-Glo Luminescent Cell Viability Assay)", "setting": "[1]; Cpd 0.002 uM", "value": "4076 and 6020 and 5860"}, {"measurement": "Macrophage viability (CellTiter-Glo Luminescent Cell Viability Assay)", "setting": "[1]; Cpd 0.008 uM", "value": "4648 and 6100 and 6132"}, {"measurement": "Macrophage viability (CellTiter-Glo Luminescent Cell Viability Assay)", "setting": "[1]; Cpd 0.04 uM", "value": "4792 and 5892 and 6380"}, {"measurement": "Macrophage viability (CellTiter-Glo Luminescent Cell Viability Assay)", "setting": "[1]; Cpd 0.2 uM", "value": "5160 and 6136 and 6440"}, {"measurement": "Macrophage viability (CellTiter-Glo Luminescent Cell Viability Assay)", "setting": "[1]; Cpd 1 uM", "value": "5140 and 6108 and 6256"}, {"measurement": "Macrophage viability (CellTiter-Glo Luminescent Cell Viability Assay)", "setting": "[1]; Cpd 5 uM", "value": "4768 and 6132 and 6032"}, {"measurement": "Macrophage viability (CellTiter-Glo Luminescent Cell Viability Assay)", "setting": "[1]; Cpd 25 uM", "value": "4560 and 5520 and 5324"}, {"measurement": "Macrophage viability (CellTiter-Glo Luminescent Cell Viability Assay)", "setting": "[1]; Cpd 50 uM", "value": "4580 and 5420 and 4932"}, {"measurement": "toxicity to macrophages", "setting": "[1]; dose as high as 50 μM", "value": "showed toxicity"}, {"measurement": "toxicity to macrophages", "setting": "[1]; dose lower than 10 μM", "value": "little toxic"}, {"measurement": "Mean Fluorescence Intensity (MFI) CD47", "setting": "[2]; 0.008 uM", "value": 8204}, {"measurement": "Mean Fluorescence Intensity (MFI) CD47", "setting": "[2]; 0.04 uM", "value": 8062}, {"measurement": "Mean Fluorescence Intensity (MFI) CD47", "setting": "[2]; 0.2 uM", "value": 8460}, {"measurement": "Mean Fluorescence Intensity (MFI) CD47", "setting": "[2]; 1 uM", "value": 6638}, {"measurement": "Mean Fluorescence Intensity (MFI) CD47", "setting": "[2]; 5 uM", "value": 5229}, {"measurement": "inhibition of CD47 expression", "setting": "[2]; dose of 5 μM", "value": "~50", "unit": "%"}, {"measurement": "Mean Fluorescence Intensity (MFI) Calreticulin", "setting": "[3]; 0.008 uM", "value": 65.8}, {"measurement": "Mean Fluorescence Intensity (MFI) Calreticulin", "setting": "[3]; 0.04 uM", "value": 71.9}, {"measurement": "Mean Fluorescence Intensity (MFI) Calreticulin", "setting": "[3]; 0.2 uM", "value": 88.4}, {"measurement": "Mean Fluorescence Intensity (MFI) Calreticulin", "setting": "[3]; 1 uM", "value": 174}, {"measurement": "Mean Fluorescence Intensity (MFI) Calreticulin", "setting": "[3]; 5 uM", "value": 491}, {"measurement": "increase of the expression level of calreticulin", "setting": "[3]; dose of 5 μM", "value": "about 20 folds"}, {"measurement": "antitumor activity compared with the control group", "setting": "[4]; 1 mg/kg", "value": "no obvious antitumor activity"}, {"measurement": "antitumor activity compared with the control group", "setting": "[4]; 2 mg/kg", "value": "certain anti-tumor activity"}, {"measurement": "Tumor volume (mm^3), Mean ± SEM", "setting": "[4]; day 0 (first dosing), 1 mg/kg", "value": "70 ± 7", "unit": "mm^3"}, {"measurement": "Tumor volume (mm^3), Mean ± SEM", "setting": "[4]; day 0 (first dosing), 2 mg/kg", "value": "70 ± 7", "unit": "mm^3"}, {"measurement": "Tumor volume (mm^3), Mean ± SEM", "setting": "[4]; day 3, 1 mg/kg", "value": "189 ± 11", "unit": "mm^3"}, {"measurement": "Tumor volume (mm^3), Mean ± SEM", "setting": "[4]; day 3, 2 mg/kg", "value": "161 ± 20", "unit": "mm^3"}, {"measurement": "Tumor volume (mm^3), Mean ± SEM", "setting": "[4]; day 7, 1 mg/kg", "value": "589 ± 41", "unit": "mm^3"}, {"measurement": "Tumor volume (mm^3), Mean ± SEM", "setting": "[4]; day 7, 2 mg/kg", "value": "498 ± 82", "unit": "mm^3"}, {"measurement": "Tumor volume (mm^3), Mean ± SEM", "setting": "[4]; day 10, 1 mg/kg", "value": "1142 ± 86", "unit": "mm^3"}, {"measurement": "Tumor volume (mm^3), Mean ± SEM", "setting": "[4]; day 10, 2 mg/kg", "value": "773 ± 145", "unit": "mm^3"}, {"measurement": "T/C (%)", "setting": "[4]; day 12, 1 mg/kg", "value": 70.21, "unit": "%"}, {"measurement": "TGI (%)", "setting": "[4]; day 12, 1 mg/kg", "value": 30.52, "unit": "%"}, {"measurement": "Tumor volume / Tumor Size (mm^3) at day 12, Mean ± SEM", "setting": "[4]; day 12, 1 mg/kg", "value": "2081±177", "unit": "mm^3"}, {"measurement": "T/C (%)", "setting": "[4]; day 12, 2 mg/kg", "value": 48.98, "unit": "%"}, {"measurement": "TGI (%)", "setting": "[4]; day 12, 2 mg/kg", "value": 52.27, "unit": "%"}, {"measurement": "Tumor volume / Tumor Size (mm^3) at day 12, Mean ± SEM", "setting": "[4]; day 12, 2 mg/kg", "value": "1452±253", "unit": "mm^3"}]}
